In data set [1] the target is Sodium-dependent dopamine transporter (Rattus norvegicus, UniProt P23977). The experiment in a line: Displacement of [3H]WIN35428 from DAT in Sprague-Dawley rat striatum membranes incubated for 120 mins by microbeta scintillation counting method. The data set is classed as cell membranes, Membrane. On the technique in general: Loss of bound radioactivity is the signal in a displacement assay; it reports binding, not function.

Data set [2] deals with Sodium-dependent serotonin transporter (Rattus norvegicus, UniProt P31652). The experiment in a line: Displacement of [3H]citalopram from SERT in Sprague-Dawley rat midbrain membranes incubated for 60 mins by microbeta scintillation counting method. The data set is classed as cell membranes, Membrane.
Sequence of Sodium-dependent serotonin transporter (P31652 whole entry): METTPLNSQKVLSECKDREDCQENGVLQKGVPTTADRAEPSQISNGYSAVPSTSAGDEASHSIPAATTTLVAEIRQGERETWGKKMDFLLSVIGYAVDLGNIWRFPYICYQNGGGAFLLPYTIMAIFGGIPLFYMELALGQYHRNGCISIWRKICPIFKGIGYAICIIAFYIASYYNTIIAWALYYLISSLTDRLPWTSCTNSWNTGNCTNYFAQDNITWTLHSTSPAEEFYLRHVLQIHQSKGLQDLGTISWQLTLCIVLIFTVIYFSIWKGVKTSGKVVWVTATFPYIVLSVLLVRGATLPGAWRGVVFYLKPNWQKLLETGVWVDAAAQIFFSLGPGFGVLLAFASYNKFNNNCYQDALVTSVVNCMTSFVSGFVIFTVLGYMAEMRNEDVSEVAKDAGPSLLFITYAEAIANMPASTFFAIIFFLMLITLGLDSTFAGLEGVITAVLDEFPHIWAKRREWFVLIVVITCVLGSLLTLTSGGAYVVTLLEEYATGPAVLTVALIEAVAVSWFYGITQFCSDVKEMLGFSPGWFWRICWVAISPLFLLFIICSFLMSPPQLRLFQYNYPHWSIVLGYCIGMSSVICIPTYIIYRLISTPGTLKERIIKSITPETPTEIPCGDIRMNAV
In data set [3] the target is Sigma non-opioid intracellular receptor 1 (Cavia porcellus, UniProt Q60492). The experiment in a line: Displacement of [3H]-(+)-pentazocine from Sigma1 receptor in guinea pig cortex membranes incubated for 120 mins by microbeta scintillation counting method. The data set is classed as cell membranes.
Sequence of Sigma non-opioid intracellular receptor 1 (Q60492 whole entry): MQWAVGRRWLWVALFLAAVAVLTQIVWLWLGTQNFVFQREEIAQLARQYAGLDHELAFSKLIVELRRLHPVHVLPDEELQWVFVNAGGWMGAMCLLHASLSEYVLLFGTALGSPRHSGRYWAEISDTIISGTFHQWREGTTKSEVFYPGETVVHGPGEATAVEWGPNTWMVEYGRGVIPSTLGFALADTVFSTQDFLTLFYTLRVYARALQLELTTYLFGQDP
The species named for another data set is Rattus norvegicus. The experiment in a line: Selectivity ratio of Ki for displacement of [3H]citalopram from in SERT Sprague-Dawley rat midbrain membranes to Ki for displacement of [3H]WIN 35428 from DAT in Sprague-Dawley rat striatum membranes.
A short description of data set [4]: Stability in mouse liver microsomes at 10 uM after 60 mins in presence of NADPH by LC-MS/MS analysis. The data set is classed as ADME, Microsome. The conditions noted are these: 1 h.
Data set [5] in a line: Half life in rat liver microsomes at 10 uM in presence of NADPH generating system by LC-MS/MS analysis. In kind it is ADME, Microsome.
The nature of data set [6]: Selectivity ratio of IC50 for inhibition of human ERG to Ki for displacement of [3H]WIN 35428 from DAT in Sprague-Dawley rat striatum membranes.
Data set [7] has as its target T1, Sodium-dependent dopamine transporter (Homo sapiens, UniProt Q01959). The experiment in a line: Displacement of [3H]WIN35428 from DAT (unknown origin) transiently expressed in COS7 cells incubated for > 90 mins by beta scintillation counting method. In kind it is cell-based, COS-7.
The nature of data set [8]: Displacement of [3H]WIN35428 from DAT Y156F mutant (unknown origin) transiently expressed in COS7 cells incubated for > 90 mins by beta scintillation counting method. In kind it is cell-based, Homo sapiens. The settings on record: cos-7.
For the next data set, the species on record is Homo sapiens. The experiment in a line: Selectivity ratio of Ki for displacement of [3H]WIN35428 from DAT Y156F mutant (unknown origin) transiently expressed in COS7 cells to Ki for displacement of [3H]WIN35428 from DAT (unknown origin) transiently expressed in COS7 cells. The data set is classed as cell-based.
Data set [9] is described as follows: Stability in mouse liver microsomes assessed as parent compound remaining at 10 uM after 60 mins in presence of NADPH by LC-MS/MS analysis. The settings on record: read-out: Stability. The data set is classed as ADME, Microsome. Background: Liver microsomes are vesicles of endoplasmic reticulum, rich in cytochrome P450 enzymes.
Data set [10] deals with T1, Sodium-dependent dopamine transporter. The data set can be described thus: Inhibition of human DAT transiently expressed in COS7 cells assessed as reduction in [3H]-DA uptake measured after 5 mins by beta-scintillation counting method. In kind it is cell-based, COS-7.
Data set [11] concerns the target Voltage-gated inwardly rectifying potassium channel KCNH2 (Homo sapiens, UniProt Q12809). The data set can be described thus: Inhibition of human ERG.

Where only a bound is given, the exact number is not on record here.

In general, Ki refers to a measure of affinity in units of concentration, obtained from inhibition or displacement. Broadly, the half-life is the time in which the quantity being followed falls by half. The IC50 is the point on the concentration scale where inhibition reaches its midpoint.

Sequence of Sodium-dependent dopamine transporter (Rattus norvegicus, UniProt P23977) (P23977 whole entry): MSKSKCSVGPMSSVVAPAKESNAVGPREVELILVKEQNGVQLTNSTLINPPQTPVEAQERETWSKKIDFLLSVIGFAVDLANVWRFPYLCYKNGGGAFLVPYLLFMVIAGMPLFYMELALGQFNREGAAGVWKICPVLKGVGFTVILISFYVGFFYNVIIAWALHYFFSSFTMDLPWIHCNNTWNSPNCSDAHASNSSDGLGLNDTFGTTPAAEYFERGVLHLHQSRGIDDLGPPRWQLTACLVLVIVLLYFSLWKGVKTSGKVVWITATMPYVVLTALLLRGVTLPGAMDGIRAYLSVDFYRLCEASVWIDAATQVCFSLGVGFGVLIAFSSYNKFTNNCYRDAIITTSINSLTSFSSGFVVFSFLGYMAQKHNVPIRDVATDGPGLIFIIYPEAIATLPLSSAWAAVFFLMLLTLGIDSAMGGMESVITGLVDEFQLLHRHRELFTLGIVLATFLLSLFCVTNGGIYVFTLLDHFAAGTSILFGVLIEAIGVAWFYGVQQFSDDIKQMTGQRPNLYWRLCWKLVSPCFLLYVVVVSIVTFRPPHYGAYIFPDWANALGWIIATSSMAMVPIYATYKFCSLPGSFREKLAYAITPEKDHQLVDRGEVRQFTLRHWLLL
T1 sequence (Q01959 whole entry): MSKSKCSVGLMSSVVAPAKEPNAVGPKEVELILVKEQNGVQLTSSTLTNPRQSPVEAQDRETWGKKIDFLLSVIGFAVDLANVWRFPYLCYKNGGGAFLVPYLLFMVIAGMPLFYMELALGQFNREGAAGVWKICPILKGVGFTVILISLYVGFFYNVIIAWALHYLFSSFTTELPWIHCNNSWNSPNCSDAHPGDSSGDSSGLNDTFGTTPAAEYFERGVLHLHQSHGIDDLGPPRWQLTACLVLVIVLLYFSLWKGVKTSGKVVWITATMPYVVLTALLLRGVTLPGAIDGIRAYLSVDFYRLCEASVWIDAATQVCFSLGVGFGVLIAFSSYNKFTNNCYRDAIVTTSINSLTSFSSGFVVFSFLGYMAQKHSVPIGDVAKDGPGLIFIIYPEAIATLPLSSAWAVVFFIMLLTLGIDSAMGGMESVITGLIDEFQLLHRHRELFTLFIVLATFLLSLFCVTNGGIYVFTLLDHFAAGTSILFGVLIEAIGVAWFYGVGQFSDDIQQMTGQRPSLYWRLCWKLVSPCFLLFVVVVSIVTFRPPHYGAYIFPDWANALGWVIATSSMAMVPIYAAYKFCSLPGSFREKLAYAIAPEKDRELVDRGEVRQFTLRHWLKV
Sequence of Voltage-gated inwardly rectifying potassium channel KCNH2 (Q12809 whole entry): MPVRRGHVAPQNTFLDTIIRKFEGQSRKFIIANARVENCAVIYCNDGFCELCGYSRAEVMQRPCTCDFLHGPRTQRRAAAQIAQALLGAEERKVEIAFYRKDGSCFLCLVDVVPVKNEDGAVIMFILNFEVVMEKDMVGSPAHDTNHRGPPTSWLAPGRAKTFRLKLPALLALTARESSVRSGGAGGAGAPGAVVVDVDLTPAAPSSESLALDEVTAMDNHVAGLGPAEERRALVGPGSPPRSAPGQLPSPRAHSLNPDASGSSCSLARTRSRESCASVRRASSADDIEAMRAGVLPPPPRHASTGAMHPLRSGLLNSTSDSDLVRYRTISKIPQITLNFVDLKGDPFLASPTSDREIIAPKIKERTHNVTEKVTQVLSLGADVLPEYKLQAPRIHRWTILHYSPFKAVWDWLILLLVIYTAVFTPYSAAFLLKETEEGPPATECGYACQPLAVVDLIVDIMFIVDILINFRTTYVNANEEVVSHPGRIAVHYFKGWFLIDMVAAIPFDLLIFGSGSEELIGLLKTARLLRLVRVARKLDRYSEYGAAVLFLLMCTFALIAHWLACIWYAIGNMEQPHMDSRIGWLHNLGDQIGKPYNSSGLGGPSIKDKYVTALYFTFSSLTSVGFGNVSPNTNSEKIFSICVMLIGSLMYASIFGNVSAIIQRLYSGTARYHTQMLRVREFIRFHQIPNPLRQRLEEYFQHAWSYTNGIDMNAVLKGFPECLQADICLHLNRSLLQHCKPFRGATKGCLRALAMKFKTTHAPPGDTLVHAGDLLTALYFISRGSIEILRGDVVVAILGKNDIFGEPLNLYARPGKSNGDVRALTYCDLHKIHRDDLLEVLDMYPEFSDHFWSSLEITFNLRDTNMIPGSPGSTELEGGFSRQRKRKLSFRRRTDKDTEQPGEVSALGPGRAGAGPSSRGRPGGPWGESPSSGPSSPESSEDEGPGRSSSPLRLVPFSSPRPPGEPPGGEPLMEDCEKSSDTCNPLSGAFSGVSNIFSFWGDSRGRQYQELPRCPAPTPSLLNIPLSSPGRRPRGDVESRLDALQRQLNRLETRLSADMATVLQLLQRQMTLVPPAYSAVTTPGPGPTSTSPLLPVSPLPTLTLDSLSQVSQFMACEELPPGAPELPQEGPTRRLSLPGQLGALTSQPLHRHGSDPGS

For `O[C@H](Cc1ccccc1)CN1CCN(CCSC(c2ccc(F)cc2)c2ccc(F)cc2)CC1`, the Ki is 3.93 nM in data set [1], 813 nM in data set [2] and 23.6 nM in [3]. In addition, the Ratio Ki in the data set listed under Rattus norvegicus turned out to be 207. For the same compound, the Stability entry in data set [4] was “Unstable”.
Turning to `C[C@@H](O)CN1CCN(CCSC(c2ccc(F)cc2)c2ccc(F)cc2)CC1`, the values for the Ki in data set [1], in data set [2] and in data set [3] were 73.2 nM, 2840 nM and 3.03 nM, respectively. For the same compound, in the data set filed under Rattus norvegicus, the Ratio Ki was found to be 40.
Take `C[C@@H]1CN(CCSC(c2ccc(F)cc2)c2ccc(F)cc2)C[C@H](C)N1CC(O)Cc1ccccc1` (stereo not given in full): the Ki in data set [3] amounted to 15.2 nM. In addition, in the data set listed under Rattus norvegicus, the Ratio Ki worked out at 805.
`CC(O)CN1CCN(CCSC(c2ccc(F)cc2)c2ccc(F)cc2)CC1` (stereo not given): the half-life at 10 µM in data set [5] was 14 min.
On to `CC(=O)CN1CCN(CCSC(c2ccc(F)cc2)c2ccc(F)cc2)CC1`, for which the inhibitory constant (Ki) in [1] was found to be 182 nM; in data set [2], 17400 nM; in data set [3], 1.08 nM. Moreover, in the data set filed under Rattus norvegicus, the Ratio Ki turned out to be 96.
Regarding `[O-][S+](CCN1CCN(CC(O)Cc2ccc(C(F)(F)F)cc2)CC1)C(c1ccc(F)cc1)c1ccc(F)cc1` (stereo not given), the Ki was determined as 11.7 nM in data set [1], 11600 nM in data set [2] and 147 nM in [3]. Moreover, the Ratio Ki in the data set filed under Rattus norvegicus was determined as 991. Further, the Stability result in data set [4] is “Unstable”.
For the compound `C[C@@H](O)CN1CCN(CC[S+]([O-])C(c2ccc(F)cc2)c2ccc(F)cc2)CC1` (stereo not given in full), the Ki came out at 782 nM in [1], 81500 nM in data set [2] and 902 nM in data set [3]. In [4], the Stability entry is listed as “Stable”.
Turning to `Fc1ccc(C(SCCCN2CCN(CCCc3ccccc3)CC2)c2ccc(F)cc2)cc1`, the Ki in data set [1] stood at 8.68 nM; in data set [2], 1060 nM; in [3] it was 29.2 nM. The Ratio Ki in the data set listed under Rattus norvegicus is 122.
For `[O-][S+](CCN1CCN(C[C@H](O)Cc2ccccc2)CC1)C(c1ccc(F)cc1)c1ccc(F)cc1` (stereo not given in full), the Ki was found to be 3.63 nM in data set [1], 18700 nM in data set [2] and 331 nM in data set [3]. In addition, the Ratio Ki in the data set filed under Rattus norvegicus came out at 5150. Besides, the Stability result in data set [4] is given as “Unstable”.
With `C[C@H](O)CN1CCN(CCSC(c2ccc(F)cc2)c2ccc(F)cc2)CC1`, the Ki in data set [1] came out at 37.9 nM; in [2] it was 3940 nM; in [3], 2.58 nM. Moreover, the Ratio Ki in the data set listed under Rattus norvegicus stood at 104.
Regarding `OC(CN1CCC2(CCN(CCSC(c3ccc(F)cc3)c3ccc(F)cc3)CC2)C1)c1ccccc1` (stereo not given), the Ki in data set [1] was 127 nM; in [3], 45.5 nM; in [7], 104 nM; in data set [8], 239 nM; in data set [10] it was 268 nM. The Ratio Ki in the data set listed under Rattus norvegicus came out at 1; in the data set listed under Homo sapiens, 2.3. Besides, the Selectivity ratio in [6] is 13. The remaining at 1 h, 10 µM in [9] fell in the range of 30 to 44%.
On to `C[C@H](O)CN1CCN(CC[S+]([O-])C(c2ccc(F)cc2)c2ccc(F)cc2)CC1` (stereo not given in full), for which the Ki in data set [1] was 536 nM; in data set [2], 200000 nM; in [3], 284 nM. The Stability result in data set [4] is on record as “Stable”.
Turning to `OC(Cc1ccc(F)cc1)CN1CCN(CCSC(c2ccc(F)cc2)c2ccc(F)cc2)CC1` (stereo not given), the Ki in data set [1] amounted to 1.72 nM; in [2], 1370 nM; in data set [3] it was 29.4 nM. Moreover, the Ratio Ki in the data set filed under Rattus norvegicus stood at 796. Moreover, the Stability result in data set [4] was “Unstable”.
As for `O[C@@H](Cc1ccccc1)CN1CCN(CCSC(c2ccc(F)cc2)c2ccc(F)cc2)CC1`, the Ki was 1.53 nM in data set [1], 1390 nM in data set [2] and 7.72 nM in data set [3]. Also, the Ratio Ki in the data set filed under Rattus norvegicus amounted to 908. The Stability result in [4] is on record as “Unstable”.
Take `COc1ccc(CC(O)CN2CCN(CCSC(c3ccc(F)cc3)c3ccc(F)cc3)CC2)cc1` (stereo not given): the Ki came to 1.91 nM in data set [1], 1420 nM in [2] and 9.65 nM in data set [3]. For the same compound, in the data set listed under Rattus norvegicus, the Ratio Ki worked out at 743.
Take `O=C(CCc1ccccc1)N1CCN(CCSC(c2ccc(F)cc2)c2ccc(F)cc2)CC1`: the Ki was 2830 nM in data set [1], 2540 nM in data set [2] and 294 nM in [3]. In the data set filed under Rattus norvegicus, the Ratio Ki came out at 0.9.
On to `COc1ccc(CC(O)CN2CCN(CC[S+]([O-])C(c3ccc(F)cc3)c3ccc(F)cc3)CC2)cc1` (stereo not given), for which the Ki in [1] is 3.01 nM; in data set [2] it was 14600 nM; in [3], 31.8 nM. The Ratio Ki in the data set filed under Rattus norvegicus turned out to be 4850. Also, the Stability entry in data set [4] is on record as “Unstable”.
Turning to `CC(O)CN1CCC2(CCN(CC[S+]([O-])C(c3ccc(F)cc3)c3ccc(F)cc3)CC2)C1` (stereo not given), in data set [3], the affinity, expressed as Ki, was 65.1 nM. The Ratio Ki in the data set listed under Rattus norvegicus came out at 1.4.
For the compound `OC(Cc1ccc(C(F)(F)F)cc1)CN1CCN(CCSC(c2ccc(F)cc2)c2ccc(F)cc2)CC1` (stereo not given), the Ki was found to be 23.4 nM in [1], 4480 nM in data set [2] and 187 nM in data set [3]. For the same compound, the Ratio Ki in the data set listed under Rattus norvegicus is 191.
In the case of `[O-][S+](CCN1CCN(CC(O)Cc2ccc(F)cc2)CC1)C(c1ccc(F)cc1)c1ccc(F)cc1` (stereo not given), the inhibitory constant (Ki) in data set [1] turned out to be 1.29 nM; in data set [2], 12300 nM; in [3], 73.7 nM. Moreover, the Ratio Ki in the data set filed under Rattus norvegicus stood at 9540. The Stability result in [4] is on record as “Unstable”.
In the same order, the values of `[O-][S+](CCN1CCN(C[C@@H](O)Cc2ccccc2)CC1)C(c1ccc(F)cc1)c1ccc(F)cc1` (stereo not given in full) are 1.34 nM, 21300 nM, 27.4 nM, 15900 and “Unstable”.
On to `C[C@@H]1CN(CC[S+]([O-])C(c2ccc(F)cc2)c2ccc(F)cc2)C[C@H](C)N1CC(O)Cc1ccccc1` (stereo not given in full), for which the Ki in data set [3] is 75.4 nM; in [7], 3.83 nM; in data set [8], 19.1 nM; in data set [10], 11.1 nM. In addition, the figures for the Ratio Ki in the data set listed under Rattus norvegicus and in the data set filed under Homo sapiens were 379 and 5.8, respectively. In addition, inhibition in data set [11] was half-maximal at 91.5 nM (IC50). Moreover, the Selectivity ratio in data set [6] came out at 30. Besides, in data set [9], the remaining at 1 h, 10 µM was < 10%.
As for `[O-][S+](CCCN1CCN(CCCc2ccccc2)CC1)C(c1ccc(F)cc1)c1ccc(F)cc1` (stereo not given), the Ki in data set [1] worked out at 40.3 nM; in [2], 1100 nM; in data set [3] it was 39.4 nM. Moreover, the Ratio Ki in the data set listed under Rattus norvegicus was 27. Further, in [4], the Stability entry is listed as “Unstable”.
Take `C[C@@H]1CN(CCSC(c2ccc(F)cc2)c2ccc(F)cc2)C[C@H](C)N1`: the Ki in data set [1] turned out to be 92.3 nM; in data set [2], 13100 nM; in data set [3] it was 111 nM. In the data set filed under Rattus norvegicus, the Ratio Ki stood at 141.
Turning to `CC(O)CN1[C@H](C)CN(CC[S+]([O-])C(c2ccc(F)cc2)c2ccc(F)cc2)C[C@@H]1C` (stereo not given in full), the Ki in [3] is 315 nM; in data set [7] it was 406 nM; in [8], 3030 nM; in data set [10], 552 nM. For the same compound, the values for the Ratio Ki in the data set filed under Rattus norvegicus and in the data set filed under Homo sapiens were 78 and 7.5, respectively. The IC50 in [11] is 7300 nM. In data set [9], the remaining at 1 h, 10 µM lay within 30 to 44%.
`CCC(=O)N1CCN(CCSC(c2ccc(F)cc2)c2ccc(F)cc2)CC1`: the results for the Ki in [1], in data set [2] and in [3] were 5080 nM, 2490 nM and 33.2 nM, respectively. Moreover, in the data set filed under Rattus norvegicus, the Ratio Ki was 0.5.

For the origin of these results see ChEMBL document CHEMBL4613215, “Structure-Activity Relationships for a Series of (Bis(4-fluorophenyl)methyl)sulfinyl Alkyl Alicyclic Amines at the Dopamine Transporter: Functionalizing the Terminal Nitrogen Affects Affinity, Selectivity, and Metabolic Stability” (J Med Chem, 2020).
